A word on the Ki: it is a measure of affinity in units of concentration, obtained from inhibition or displacement. One may read the IC50 as the concentration that gives 50% inhibition. The EC50 is the concentration giving half of the maximal effect. By CC50 is commonly meant the concentration giving 50% cytotoxicity.

Activity calls are given as the source filed them.

From ChEMBL document CHEMBL1201862, “PubChem BioAssay data set” (2004) come the findings set out here.

Holding throughout (assay type): functional
Experiment [1] deals with Protein kinase C theta type (Homo sapiens, UniProt Q04759). Briefly: Navigating the Kinome. Panel member name: PRKCQ.
The target in experiment [2] is Dual specificity protein kinase CLK2 (Homo sapiens, UniProt P49760).
Experiment [3] has as its target Serine/threonine-protein kinase PLK3 (Homo sapiens, UniProt Q9H4B4).
For experiment [4], the target named is RAC-gamma serine/threonine-protein kinase (Homo sapiens, UniProt Q9Y243).
Experiment [5] has as its target 5'-AMP-activated protein kinase catalytic subunit alpha-1 (Homo sapiens, UniProt Q13131).
Experiment [6] deals with Tyrosine-protein kinase receptor TYRO3 (Homo sapiens, UniProt Q06418).
For experiment [7], the target named is Serine/threonine-protein kinase D3 (Homo sapiens, UniProt O94806).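 Note: determined within a kinase panel screen, with PRKCN as the panel member.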
For experiment [8], the target named is Death-associated protein kinase 3 (Homo sapiens, UniProt O43293).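 Note: measured as one member of a kinome-wide profiling panel.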
The target in the next experiment is Activin receptor type-1 (Homo sapiens, UniProt Q04771). Briefly: Navigating the Kinome. Panel member name: ACVR1.
Experiment [9] has as its target Mitogen-activated protein kinase 8 (Homo sapiens, UniProt P45983).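 Note: value comes from one member of a kinome-wide kinase profiling panel.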
The target of experiment [10] is Serine/threonine-protein kinase pim-1 (Homo sapiens, UniProt P11309).
A further experiment has as its target Aurora kinase A (Homo sapiens, UniProt O14965).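 Note: value from the Navigating the Kinome kinase panel profiling, panel entry STK6.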
Experiment [11] has as its target Fibroblast growth factor receptor 1 (Homo sapiens, UniProt P11362).
In the next experiment the target is LIM domain kinase 1 (Homo sapiens, UniProt P53667). Briefly: Navigating the Kinome. Panel member name: LIMK1.
Experiment [12] addresses High affinity nerve growth factor receptor (Homo sapiens, UniProt P04629).
Experiment [13] addresses Serine/threonine-protein kinase pim-3 (Homo sapiens, UniProt Q86V86).
The target of another experiment is Activated CDC42 kinase 1 (Homo sapiens, UniProt Q07912). Briefly: Navigating the Kinome. Panel member name: ACK1.
Experiment [14] addresses Platelet-derived growth factor receptor beta (Homo sapiens, UniProt P09619).
Experiment [15] concerns the target Vascular endothelial growth factor receptor 2 (Homo sapiens, UniProt P35968).
For experiment [16], the target named is Dual specificity tyrosine-phosphorylation-regulated kinase 1B (Homo sapiens, UniProt Q9Y463). Briefly: Navigating the Kinome. Panel member name: DYRK1B.
The target in experiment [17] is cAMP-dependent protein kinase catalytic subunit PRKX (Homo sapiens, UniProt P51817).
Experiment [18] deals with Platelet-derived growth factor receptor alpha (Homo sapiens, UniProt P16234). Briefly: Navigating the Kinome. Panel member name: PDGFRA.
The target of experiment [19] is Leucine-rich repeat serine/threonine-protein kinase 2 (Homo sapiens, UniProt Q5S007).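 Note: value from a broad kinome-wide panel profiling study in which LRRK2 was one of the kinases tested.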
The next experiment has as its target Aurora kinase B (Homo sapiens, UniProt Q96GD4).
Experiment [20] deals with RAC-alpha serine/threonine-protein kinase (Homo sapiens, UniProt P31749).
Experiment [21] concerns the target Rho-associated protein kinase 1 (Homo sapiens, UniProt Q13464).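 Note: measured within a broad kinome-wide panel profiling many kinases.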
Experiment [22] has as its target Serine/threonine-protein kinase Nek2 (Homo sapiens, UniProt P51955).
For experiment [23], the target named is Cyclin-dependent kinase 8 (Homo sapiens, UniProt P49336). In words: Navigating the Kinome. Panel member name: CDK8.
For experiment [24], the target named is Cyclin-dependent kinase 7 (Homo sapiens, UniProt P50613).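 Note: value comes from a kinome-wide kinase profiling panel in which CDK7 is one member.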
In experiment [25] the target is Serine/threonine-protein kinase PLK1 (Homo sapiens, UniProt P53350).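 Note: PLK1 measured as one member of a kinome-wide profiling panel.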
Experiment [26] addresses Cyclin-dependent kinase 9 (Homo sapiens, UniProt P50750).
The target in experiment [27] is cAMP-dependent protein kinase catalytic subunit alpha (Homo sapiens, UniProt P17612).
The target in experiment [28] is Dual specificity protein kinase CLK4 (Homo sapiens, UniProt Q9HAZ1).
The target of experiment [29] is Mitogen-activated protein kinase kinase kinase kinase 4 (Homo sapiens, UniProt O95819).
Experiment [30] addresses Macrophage colony-stimulating factor 1 receptor (Homo sapiens, UniProt P07333).
Experiment [31] addresses Dual specificity tyrosine-phosphorylation-regulated kinase 1A (Homo sapiens, UniProt Q13627).
Experiment [32] has as its target Inhibitor of nuclear factor kappa-B kinase subunit epsilon (Homo sapiens, UniProt Q14164). Briefly: Navigating the Kinome. Panel member name: IKBKE.
In experiment [33] the target is Calcium/calmodulin-dependent protein kinase type II subunit alpha (Homo sapiens, UniProt Q9UQM7). In words: Navigating the Kinome. Panel member name: CAMK2A.
The target of experiment [34] is Leukocyte tyrosine kinase receptor (Homo sapiens, UniProt P29376). In words: Navigating the Kinome. Panel member name: LTK.
The target in experiment [35] is T1, Neuropeptides B/W receptor type 1 (Homo sapiens, UniProt P48145).
T1 sequence (P48145 whole entry): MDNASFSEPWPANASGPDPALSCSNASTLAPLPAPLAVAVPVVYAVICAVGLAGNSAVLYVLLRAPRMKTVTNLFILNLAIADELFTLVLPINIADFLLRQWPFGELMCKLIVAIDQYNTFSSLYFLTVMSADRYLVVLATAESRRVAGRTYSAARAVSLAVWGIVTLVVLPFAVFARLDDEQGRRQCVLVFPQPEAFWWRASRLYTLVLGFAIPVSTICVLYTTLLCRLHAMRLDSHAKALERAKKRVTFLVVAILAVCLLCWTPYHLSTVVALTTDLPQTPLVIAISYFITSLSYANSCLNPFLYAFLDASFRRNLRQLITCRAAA
Briefly: GPR7 antagonist potency, late-stage follow-up, cell-based, fluorescence, dose response, set 5 (AID 588566).

For experiment [36], the target named is T2, Melanin-concentrating hormone receptor 1 (Homo sapiens, UniProt Q99705). Briefly: Late-stage fluorescence-based counterscreen for antagonists of the G-protein coupled receptor 7 (GPR7): cell-based dose response assay to identify antagonists of the melanin-concentrating hormone receptor 1 (MCHR1) Set 5. (In general: The purpose of a counterscreen is to sort out artefacts and off-target activity.)

In experiment [37] the target is T2, Melanin-concentrating hormone receptor 1. In words: Late-stage fluorescence-based counterscreen for antagonists of the G-protein coupled receptor 7 (GPR7): cell-based dose response assay to identify antagonists of the melanin-concentrating hormone receptor 1 (MCHR1) Set 6.
Experiment [38] concerns the target T1, Neuropeptides B/W receptor type 1. In words: GPR7 antagonist potency, late-stage follow-up, cell-based, fluorescence, dose response, set 6 (AID 588583).
In another experiment the test system is HEK293. In words: Fluorescence-based counterscreen for potentiators or agonists of NPY-Y2: cell-based high-throughput dose response assay to identify inhibitors of cyclic nucleotide gated ion channel (CNGC) activity. In this assay, the parental HEK293 cell line transfected with a cyclic-nucleotide gated ion channel (CNGC)-based cAMP sensor is used to measure inhibition of isoproterenol-induced CNGC activity by test compound. The conditions noted are these: Homo sapiens.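 Note: stimulus is 1 µM isoproterenol at EC100 plus PDE inhibitor Ro 20-1724 at 25 µM.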

For experiment [39], the target named is T3, Neuropeptide Y receptor type 2 (Homo sapiens, UniProt P49146).
T3 sequence (P49146 whole entry): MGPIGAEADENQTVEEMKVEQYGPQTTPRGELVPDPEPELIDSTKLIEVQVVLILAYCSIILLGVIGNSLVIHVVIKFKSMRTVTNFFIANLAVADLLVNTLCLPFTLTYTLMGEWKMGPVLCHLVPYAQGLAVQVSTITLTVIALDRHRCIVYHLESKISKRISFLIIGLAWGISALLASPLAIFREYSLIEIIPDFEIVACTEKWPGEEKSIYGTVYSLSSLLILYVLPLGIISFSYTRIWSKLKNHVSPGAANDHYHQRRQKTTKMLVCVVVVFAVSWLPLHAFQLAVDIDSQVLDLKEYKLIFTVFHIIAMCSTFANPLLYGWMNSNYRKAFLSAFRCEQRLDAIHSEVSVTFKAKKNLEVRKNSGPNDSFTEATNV
Briefly: Fluorescence-based cell-based high-throughput dose response assay for agonists of NPY-Y2. [Related pubchem assays: 1703 (Screening assay (CNGC inhibitors).), 1359 (Screening assay (NPY-Y2 potentiators or agonists).), 1304 (Screening assay (NPY-Y1 potentiators or agonists).), 1710 (Screening assay (NPY-Y2 agonists).), 1791 (Summary AID.)].

Experiment [40] addresses T4, Neuropeptide Y receptor type 1 (Homo sapiens, UniProt P25929).
T4 sequence (P25929 whole entry): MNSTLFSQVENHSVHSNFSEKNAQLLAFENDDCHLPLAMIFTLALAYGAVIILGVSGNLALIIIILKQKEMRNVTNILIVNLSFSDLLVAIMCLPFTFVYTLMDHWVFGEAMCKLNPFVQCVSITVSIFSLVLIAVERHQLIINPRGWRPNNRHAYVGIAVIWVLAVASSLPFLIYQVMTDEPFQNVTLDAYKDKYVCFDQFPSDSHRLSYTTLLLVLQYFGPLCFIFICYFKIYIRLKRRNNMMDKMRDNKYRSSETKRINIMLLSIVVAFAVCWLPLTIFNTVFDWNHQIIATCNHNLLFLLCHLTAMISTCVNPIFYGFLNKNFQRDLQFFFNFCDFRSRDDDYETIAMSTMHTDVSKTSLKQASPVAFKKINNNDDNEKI
In words: Fluorescence-based counterscreen for agonists of NPY-Y2: cell-based high-throughput dose response assay for agonists of NPY-Y1.

Another experiment deals with Melanocortin receptor 4 (Homo sapiens, UniProt P32245). In words: MC4R antagonist potency on cAMP, dose response, cell-based, TR-FRET, biased antagonists (AID 602298).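 Note: antagonist potency against agonist-stimulated cAMP production.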
Experiment [41] in a line: nonselective inhibitors of cellular cAMP signaling, dose response, counter-screen for MC4R biased antagonist project, cell-based, TR-FRET cAMP detection (AID 602305).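 Note: U2OS cells stimulated with forskolin near its EC80 as the cAMP inducer; potency is for inhibition of forskolin-stimulated cAMP signaling.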
Experiment [42] is described as follows: THP-1 cell cytotoxicity, cytotoxicity control, set 5 (AID 588443).
Experiment [43] in a line: Vero cell cytotoxicity, dose response, cytotoxicity control for M. tuberculosis inhibitor project, purified and synthesized compounds, set 6 (AID 588445). The settings on record: Mycobacterium tuberculosis.

T2 sequence (Q99705 whole entry): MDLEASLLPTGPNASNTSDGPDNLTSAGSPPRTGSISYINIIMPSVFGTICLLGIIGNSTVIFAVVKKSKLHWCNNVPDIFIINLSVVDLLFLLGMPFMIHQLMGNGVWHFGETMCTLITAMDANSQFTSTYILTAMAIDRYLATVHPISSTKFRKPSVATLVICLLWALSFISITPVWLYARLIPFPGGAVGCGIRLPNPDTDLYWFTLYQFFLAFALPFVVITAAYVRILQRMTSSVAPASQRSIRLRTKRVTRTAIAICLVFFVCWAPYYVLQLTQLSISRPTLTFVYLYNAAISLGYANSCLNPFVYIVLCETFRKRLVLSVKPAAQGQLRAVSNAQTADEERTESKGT
Chain of Serine/threonine-protein kinase PLK1 (P53350 whole entry): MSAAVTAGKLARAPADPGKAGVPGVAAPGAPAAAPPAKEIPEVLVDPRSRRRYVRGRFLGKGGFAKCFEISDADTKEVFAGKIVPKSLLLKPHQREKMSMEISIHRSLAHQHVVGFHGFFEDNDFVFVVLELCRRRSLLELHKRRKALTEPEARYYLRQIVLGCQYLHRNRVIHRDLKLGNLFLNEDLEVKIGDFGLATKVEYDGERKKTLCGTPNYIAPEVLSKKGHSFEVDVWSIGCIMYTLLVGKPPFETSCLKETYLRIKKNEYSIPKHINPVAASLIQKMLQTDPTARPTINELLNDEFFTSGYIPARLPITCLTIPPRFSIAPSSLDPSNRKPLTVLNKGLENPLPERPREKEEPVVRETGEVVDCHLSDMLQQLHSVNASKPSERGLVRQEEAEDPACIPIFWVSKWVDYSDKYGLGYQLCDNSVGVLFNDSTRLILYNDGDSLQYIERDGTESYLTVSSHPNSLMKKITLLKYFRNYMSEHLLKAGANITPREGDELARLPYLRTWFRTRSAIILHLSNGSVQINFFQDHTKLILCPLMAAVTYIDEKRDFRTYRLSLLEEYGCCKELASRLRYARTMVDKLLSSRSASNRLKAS
Chain of RAC-gamma serine/threonine-protein kinase (Q9Y243 whole entry): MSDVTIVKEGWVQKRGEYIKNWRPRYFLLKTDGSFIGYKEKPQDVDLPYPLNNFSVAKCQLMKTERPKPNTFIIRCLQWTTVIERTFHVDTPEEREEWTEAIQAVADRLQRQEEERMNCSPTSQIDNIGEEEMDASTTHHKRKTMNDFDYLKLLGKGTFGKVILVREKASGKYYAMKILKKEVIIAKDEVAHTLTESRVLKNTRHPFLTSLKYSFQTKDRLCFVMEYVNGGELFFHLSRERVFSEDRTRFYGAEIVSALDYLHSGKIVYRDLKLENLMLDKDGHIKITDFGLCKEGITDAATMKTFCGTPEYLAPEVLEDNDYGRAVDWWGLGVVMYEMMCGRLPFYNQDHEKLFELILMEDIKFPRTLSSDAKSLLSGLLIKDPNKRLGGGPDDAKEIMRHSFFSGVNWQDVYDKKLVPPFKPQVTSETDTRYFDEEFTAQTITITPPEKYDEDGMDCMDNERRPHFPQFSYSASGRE
Chain of Mitogen-activated protein kinase 8 (P45983 whole entry): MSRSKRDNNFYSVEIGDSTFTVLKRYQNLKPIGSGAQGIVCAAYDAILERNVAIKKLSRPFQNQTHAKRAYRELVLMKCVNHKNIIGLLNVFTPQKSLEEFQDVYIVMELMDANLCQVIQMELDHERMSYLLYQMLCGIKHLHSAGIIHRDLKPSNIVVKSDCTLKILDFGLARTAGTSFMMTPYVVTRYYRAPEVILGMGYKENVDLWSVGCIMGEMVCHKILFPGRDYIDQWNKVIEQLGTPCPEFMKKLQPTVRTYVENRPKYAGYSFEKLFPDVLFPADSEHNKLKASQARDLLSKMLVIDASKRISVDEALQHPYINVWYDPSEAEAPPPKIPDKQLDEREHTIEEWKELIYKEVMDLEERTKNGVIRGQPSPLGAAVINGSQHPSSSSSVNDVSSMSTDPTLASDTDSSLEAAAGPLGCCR
Chain of Inhibitor of nuclear factor kappa-B kinase subunit epsilon (Q14164 whole entry): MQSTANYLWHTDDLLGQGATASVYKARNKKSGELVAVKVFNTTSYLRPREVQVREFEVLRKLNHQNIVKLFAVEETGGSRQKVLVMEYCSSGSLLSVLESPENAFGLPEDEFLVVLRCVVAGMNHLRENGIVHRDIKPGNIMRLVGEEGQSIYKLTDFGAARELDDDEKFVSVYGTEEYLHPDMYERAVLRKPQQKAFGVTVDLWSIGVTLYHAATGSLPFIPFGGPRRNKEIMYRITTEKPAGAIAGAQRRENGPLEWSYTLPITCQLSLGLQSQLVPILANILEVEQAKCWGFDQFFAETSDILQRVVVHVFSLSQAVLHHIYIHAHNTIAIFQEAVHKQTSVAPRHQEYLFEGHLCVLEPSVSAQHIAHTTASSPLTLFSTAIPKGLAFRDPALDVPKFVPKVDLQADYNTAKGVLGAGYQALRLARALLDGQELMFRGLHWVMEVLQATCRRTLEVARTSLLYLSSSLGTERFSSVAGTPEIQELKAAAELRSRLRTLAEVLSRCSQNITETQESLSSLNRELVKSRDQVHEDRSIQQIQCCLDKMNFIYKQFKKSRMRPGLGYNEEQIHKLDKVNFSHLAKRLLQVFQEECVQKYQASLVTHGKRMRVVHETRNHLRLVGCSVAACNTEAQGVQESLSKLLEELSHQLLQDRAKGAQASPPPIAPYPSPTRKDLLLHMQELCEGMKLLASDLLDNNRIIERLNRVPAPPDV
Chain of Activin receptor type-1 (Q04771 whole entry): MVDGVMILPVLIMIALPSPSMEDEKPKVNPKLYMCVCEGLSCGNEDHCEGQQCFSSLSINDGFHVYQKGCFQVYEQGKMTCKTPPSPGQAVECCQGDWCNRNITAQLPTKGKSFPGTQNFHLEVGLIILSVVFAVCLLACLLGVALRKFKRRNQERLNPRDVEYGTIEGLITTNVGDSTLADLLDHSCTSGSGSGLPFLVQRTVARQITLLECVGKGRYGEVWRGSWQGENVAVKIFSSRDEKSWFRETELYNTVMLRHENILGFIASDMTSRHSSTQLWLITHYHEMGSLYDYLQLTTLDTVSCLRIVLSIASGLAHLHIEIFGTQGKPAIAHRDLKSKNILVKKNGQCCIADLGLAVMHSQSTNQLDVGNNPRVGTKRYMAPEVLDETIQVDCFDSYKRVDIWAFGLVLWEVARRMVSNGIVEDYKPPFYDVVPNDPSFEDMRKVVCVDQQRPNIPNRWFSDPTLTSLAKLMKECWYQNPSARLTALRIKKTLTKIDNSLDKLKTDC
Chain of Platelet-derived growth factor receptor alpha (P16234 whole entry): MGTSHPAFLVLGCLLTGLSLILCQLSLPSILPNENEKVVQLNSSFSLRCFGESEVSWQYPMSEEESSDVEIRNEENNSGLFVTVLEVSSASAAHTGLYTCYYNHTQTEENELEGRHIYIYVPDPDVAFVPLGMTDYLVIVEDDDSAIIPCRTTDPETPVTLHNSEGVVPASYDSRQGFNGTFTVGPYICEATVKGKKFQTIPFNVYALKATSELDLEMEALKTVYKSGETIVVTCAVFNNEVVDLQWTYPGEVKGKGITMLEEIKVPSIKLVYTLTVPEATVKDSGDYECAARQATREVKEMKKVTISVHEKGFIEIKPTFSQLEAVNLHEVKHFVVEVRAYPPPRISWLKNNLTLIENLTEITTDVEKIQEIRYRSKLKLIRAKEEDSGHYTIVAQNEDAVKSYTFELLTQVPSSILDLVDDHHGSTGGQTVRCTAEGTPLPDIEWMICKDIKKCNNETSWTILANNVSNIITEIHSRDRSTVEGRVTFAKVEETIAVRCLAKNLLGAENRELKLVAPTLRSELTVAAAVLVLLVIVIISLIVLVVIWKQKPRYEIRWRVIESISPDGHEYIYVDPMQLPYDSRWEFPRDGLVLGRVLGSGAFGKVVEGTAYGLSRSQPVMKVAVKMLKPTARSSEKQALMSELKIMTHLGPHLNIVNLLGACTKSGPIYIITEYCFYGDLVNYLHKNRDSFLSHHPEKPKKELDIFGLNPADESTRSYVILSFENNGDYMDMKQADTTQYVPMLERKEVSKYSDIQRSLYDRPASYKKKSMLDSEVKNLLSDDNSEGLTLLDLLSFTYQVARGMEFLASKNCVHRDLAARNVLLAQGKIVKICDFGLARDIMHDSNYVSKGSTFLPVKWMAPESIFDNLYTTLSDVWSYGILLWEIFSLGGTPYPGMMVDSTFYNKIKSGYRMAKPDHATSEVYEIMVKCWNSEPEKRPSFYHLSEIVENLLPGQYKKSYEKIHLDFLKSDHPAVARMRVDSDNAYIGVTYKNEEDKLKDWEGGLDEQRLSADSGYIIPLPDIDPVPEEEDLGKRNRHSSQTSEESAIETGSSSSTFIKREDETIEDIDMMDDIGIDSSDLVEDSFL
Chain of Leukocyte tyrosine kinase receptor (P29376 whole entry): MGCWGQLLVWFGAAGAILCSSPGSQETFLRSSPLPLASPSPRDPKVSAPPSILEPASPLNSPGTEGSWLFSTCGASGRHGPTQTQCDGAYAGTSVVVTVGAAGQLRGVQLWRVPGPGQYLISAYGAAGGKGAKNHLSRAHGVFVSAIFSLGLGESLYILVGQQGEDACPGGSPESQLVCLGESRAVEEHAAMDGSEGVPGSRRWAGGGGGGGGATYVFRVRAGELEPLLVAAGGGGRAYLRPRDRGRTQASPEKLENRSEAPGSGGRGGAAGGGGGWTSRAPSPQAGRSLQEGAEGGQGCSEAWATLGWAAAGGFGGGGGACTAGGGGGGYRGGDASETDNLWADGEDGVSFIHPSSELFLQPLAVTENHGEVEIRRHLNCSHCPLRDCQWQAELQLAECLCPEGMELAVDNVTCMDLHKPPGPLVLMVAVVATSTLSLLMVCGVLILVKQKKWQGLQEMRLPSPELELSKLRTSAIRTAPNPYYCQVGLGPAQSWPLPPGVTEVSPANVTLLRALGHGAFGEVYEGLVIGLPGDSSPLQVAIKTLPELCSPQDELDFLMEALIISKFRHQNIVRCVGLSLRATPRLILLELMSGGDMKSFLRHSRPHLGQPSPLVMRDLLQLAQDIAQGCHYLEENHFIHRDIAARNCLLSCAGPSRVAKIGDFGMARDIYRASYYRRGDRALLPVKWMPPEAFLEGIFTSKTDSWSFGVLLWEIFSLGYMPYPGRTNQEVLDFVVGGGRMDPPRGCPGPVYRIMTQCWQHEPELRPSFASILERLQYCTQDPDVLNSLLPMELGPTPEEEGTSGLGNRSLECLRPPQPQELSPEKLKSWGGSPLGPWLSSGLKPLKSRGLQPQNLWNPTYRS

As for `Nc1n[nH]c2nc(Cl)sc12`, the inhibition constant Ki in experiment [1] is 79.4 µM (active); in experiment [2] it was 39.8 µM (active); in experiment [3], > 79.4 µM (inactive); in [4], > 100 µM (inactive); in experiment [5] it was 39.8 µM (active); in experiment [6] it was 50.1 µM (active). The inhibition constant Ki is 63.1 µM (active) in experiment [7]; 31.6 µM (active) in experiment [8]; 6.31 µM (active) on Activin receptor type-1; 63.1 µM (active) in experiment [9]; > 63.1 µM (inactive) in [10]; 25.1 µM (active) at Aurora kinase A. Also, the Ki in [11] was > 63.1 µM (inactive); on LIM domain kinase 1, 12.6 µM (active); in experiment [12], 25.1 µM (active); in experiment [13], 39.8 µM (active); on Activated CDC42 kinase 1, 79.4 µM (active); in experiment [14] it was > 79.4 µM (inactive). Moreover, the Ki is > 100 µM (inactive) in experiment [15]; 15.8 µM (active) in [16]; 50.1 µM (active) in experiment [17]; 50.1 µM (active) in [18]; 15.8 µM (active) in experiment [19]; 50.1 µM (active) on Aurora kinase B. Moreover, the Ki in [20] was > 79.4 µM (inactive); in experiment [21] it was 39.8 µM (active); in experiment [22], 20 µM (active); in experiment [23], 15.8 µM (active); in experiment [24], 39.8 µM (active); in experiment [25], > 79.4 µM (inactive). The Ki in experiment [26] was 12.6 µM (active); in [27], 31.6 µM (active); in [28], 5.01 µM (active); in [29] it was 50.1 µM (active); in experiment [30], > 63.1 µM (inactive); in [31], 6.31 µM (active). Further, the Ki in experiment [32] is 39.8 µM (active); in [33], 63.1 µM (active); in [34], 15.8 µM (active).
Turning to `COc1ccc(Oc2c(Cl)cnn(Cc3ccc(C(=O)c4ccccc4)cc3)c2=O)cc1`, the figures for the IC50 in experiment [35] and in [36] were 5.25 µM (active) and 2.46 µM (active), respectively.
For `N#CC(c1ccc(F)cc1F)c1c(Cl)cnn(Cc2cccc3ccccc23)c1=O` (stereo not given), the half-maximal inhibitory concentration (IC50) in [37] and in experiment [38] was 0.214 µM (active) in each case.
Turning to `O=C(Nc1ccccc1C(=O)N1CCCC1)c1ccc(Cl)c([N+](=O)[O-])c1`, the concentration giving a half-maximal response (EC50) in the experiment with HEK293 is 28 µM (not active); in [39], 27.9 µM (not active); in [40] it was 18.6 µM (not active). Further, the IC50 at Melanocortin receptor 4 is 20.6 µM (inactive); in experiment [41] it was > 64.6 µM (inactive).
As for `O=C(c1ccc(CNc2c(N3CCCC3)c(=O)c2=O)cc1)N1CC=C(c2ccccc2)CC1`, the CC50 was 75.8 µM (active) in experiment [42] and > 100 µM (inconclusive) in [43].
